# Patent publication US20190284136A1, “INDOLINE DERIVATIVES” (ViiV HEALTHCARE UK LIMITED, priority 2016, published 2019)
# Test system: HIV
# Assay: Table 1 IC50 of the examples (assay method not given; patent concerns inhibiting HIV replication)
# Type: cell-based
# Conditions: Human immunodeficiency virus 1
row,Structure (SMILES),IC50 [nM]
1,"Cc1cc(C(=O)N2CCc3c2cc(C)c([C@H](OC(C)(C)C)C(=O)O)c3-c2cc(F)c3c(c2C)CCCO3)ccc1F (atropisomer, axis not shown) [Example 48, (S)-2-(tert-Butoxy)-2-((R)-1-(4-fluoro-3-methylbenzoyl)-4-(8-fluoro-5-methylchroman-6-yl)-6-methylindolin-5-yl)acetic acid]",4
2,"Cc1cc2c(c(-c3cc(F)c4c(c3C)CCCO4)c1[C@H](OC(C)(C)C)C(=O)O)CCN2C(=O)c1cc(Cl)ccc1Cl (atropisomer, axis not shown) [Example 68, (S)-2-(tert-Butoxy)-2-((R)-1-(2,5-dichlorobenzoyl)-4-(8-fluoro-5-methylchroman-6-yl)-6-methylindolin-5-yl)acetic acid]",13
3,"COc1cccc(C(=O)N2CCc3c2cc(C)c([C@H](OC(C)(C)C)C(=O)O)c3-c2cc(F)c3c(c2C)CCCO3)c1C (atropisomer, axis not shown) [Example 67, (S)-2-(tert-Butoxy)-2-((R)-4-(8-fluoro-5-methylchroman-6-yl)-1-(3-methoxy-2-methylbenzoyl)-6-methylindolin-5-yl)acetic acid]",5
4,"Cc1ccc(C(=O)N2CCc3c2cc(C)c([C@H](OC(C)(C)C)C(=O)O)c3-c2cc(C)c3c(c2C)CCCO3)cn1 (atropisomer, axis not shown) [Example 195, (S)-2-(tert-Butoxy)-2-((R)-4-(5,8-dimethylchroman-6-yl)-6-methyl-1-(6-methylnicotinoyl)indolin-5-yl)acetic acid]",121
5,"COc1c(F)cccc1C(=O)N1CCc2c1cc(C)c([C@H](OC(C)(C)C)C(=O)O)c2-c1ccc(C)cc1 [Example 27, (S)-2-(tert-Butoxy)-2-(1-(3-fluoro-2-methoxybenzoyl)-6-methyl-4-(p-tolyl)indolin-5-yl)acetic acid]",7
6,"Cc1cc2c(c(-c3cc(F)c4c(c3C)CCCO4)c1[C@H](OC(C)(C)C)C(=O)O)CCN2C(=O)c1ccc(F)cc1F (atropisomer, axis not shown) [Example 60, (S)-2-(tert-Butoxy)-2-((R)-1-(2,4-difluorobenzoyl)-4-(8-fluoro-5-methylchroman-6-yl)-6-methylindolin-5-yl)acetic acid]",6
7,"Cc1ccc(-c2c3c(cc(C)c2C(OC(C)(C)C)C(=O)O)N(C(=O)Nc2ccc(F)cc2)CC3)cc1 (stereo not drawn) [Example 7, 2-(tert-Butoxy)-2-(1-((4-fluorophenyl)carbamoyl)-6-methyl-4-(p-tolyl)indolin-5-yl)acetic acid]",3010
8,"Cc1cc2c(c(-c3cc(F)c4c(c3C)CCCO4)c1[C@H](OC(C)(C)C)C(=O)O)CCN2C(=O)C(C)(C)C (atropisomer, axis not shown) [Example 120, (S)-2-(tert-Butoxy)-2-((R)-4-(8-fluoro-5-methylchroman-6-yl)-6-methyl-1-pivaloylindolin-5-yl)acetic acid]",91
9,"Cc1cc2c(c(-c3cc(F)c4c(c3C)CCCO4)c1[C@H](OC(C)(C)C)C(=O)O)CCN2C(=O)c1cc(C(F)(F)F)ccc1F (atropisomer, axis not shown) [Example 155, (S)-2-(tert-Butoxy)-2-((R)-1-(2-fluoro-5-(trifluoromethyl)benzoyl)-4-(8-fluoro-5-methylchroman-6-yl)-6-methylindolin-5-yl)acetic acid]",72
10,"COc1ccc(C)cc1C(=O)N1CCc2c1cc(C)c([C@H](OC(C)(C)C)C(=O)O)c2-c1cc(F)c2c(c1C)CCCO2 (atropisomer, axis not shown) [Example 99, (S)-2-(tert-Butoxy)-2-((R)-4-(8-fluoro-5-methylchroman-6-yl)-1-(2-methoxy-5-methylbenzoyl)-6-methylindolin-5-yl)acetic acid]",4
11,"Cc1ccc(C(=O)N2CCc3c2cc(C)c([C@H](OC(C)(C)C)C(=O)O)c3-c2cc(F)c3c(c2C)CCCO3)cn1 (atropisomer, axis not shown) [Example 116, (S)-2-(tert-Butoxy)-2-((R)-4-(8-fluoro-5-methylchroman-6-yl)-6-methyl-1-(6-methylnicotinoyl)indolin-5-yl)acetic acid]",11
12,"COc1c(C(=O)N2CCc3c2cc(C)c([C@H](OC(C)(C)C)C(=O)O)c3-c2cc(F)c3c(c2C)CCCO3)cccc1C(F)(F)F (atropisomer, axis not shown) [Example 180, (S)-2-(tert-Butoxy)-2-((R)-4-(8-Fluoro-5-methylchroman-6-yl)-1-(2-methoxy-3-(trifluoromethyl)benzoyl)-6-methylindolin-5-yl)acetic acid]",5
13,"Cc1ccc(C(=O)N2CCc3c2cc(C)c([C@H](OC(C)(C)C)C(=O)O)c3-c2cc(F)c3c(c2C)CCCO3)cc1Cl (atropisomer, axis not shown) [Example 115, (S)-2-(tert-Butoxy)-2-((R)-1-(3-chloro-4-methylbenzoyl)-4-(8-fluoro-5-methylchroman-6-yl)-6-methylindolin-5-yl)acetic acid]",5
14,"Cc1cccc(C(=O)N2CCc3c2cc(C)c([C@H](OC(C)(C)C)C(=O)O)c3-c2cc(F)c3c(c2C)CCCO3)c1F (atropisomer, axis not shown) [Example 118, (S)-2-(tert-Butoxy)-2-((R)-1-(2-fluoro-3-methylbenzoyl)-4-(8-fluoro-5-methylchroman-6-yl)-6-methylindolin-5-yl)acetic acid]",5
15,"COc1cc(C(F)(F)F)ccc1C(=O)N1CCc2c1cc(C)c([C@H](OC(C)(C)C)C(=O)O)c2-c1cc(F)c2c(c1C)CCCO2 (atropisomer, axis not shown) [Example 163, (S)-2-(tert-Butoxy)-2-((R)-4-(8-fluoro-5-methylchroman-6-yl)-1-(2-methoxy-4-(trifluoromethyl)benzoyl)-6-methylindolin-5-yl)acetic acid]",9
16,"COc1ccc(C(=O)N2CCc3c2cc(C)c([C@H](OC(C)(C)C)C(=O)O)c3-c2cc(C(F)(F)F)c3c(c2C)CCCO3)cc1C (atropisomer, axis not shown) [Example 196, (S)-2-(tert-Butoxy)-2-((R)-1-(4-methoxy-3-methylbenzoyl)-6-methyl-4-(5-methyl-8-(trifluoromethyl)chroman-6-yl)indolin-5-yl)acetic acid]",359
17,"Cc1ccc(-c2c3c(cc(C)c2[C@H](OC(C)(C)C)C(=O)O)N(C(=O)c2ccc(F)cc2C)CC3)cc1 [Example 44, (S)-2-(tert-Butoxy)-2-(1-(4-fluoro-2-methylbenzoyl)-6-methyl-4-(p-tolyl)indolin-5-yl)acetic acid]",6
18,"COc1cc(F)cc(C(=O)N2CCc3c2cc(C)c([C@H](OC(C)(C)C)C(=O)O)c3-c2cc(F)c3c(c2C)CCCO3)c1 [Example 158, (S)-2-(tert-Butoxy)-2-((R)-1-(3-fluoro-5-methoxybenzoyl)-4-(8-fluoro-5-methylchroman-6-yl)-6-methylindolin-5-yl) acetic acid]",3
19,"Cc1cc2c(c(-c3cc(F)c4c(c3C)CCCO4)c1[C@H](OC(C)(C)C)C(=O)O)CCN2C(=O)c1cc(F)ccc1F (atropisomer, axis not shown) [Example 109, (S)-2-(tert-Butoxy)-2-((R)-1-(2,5-difluorobenzoyl)-4-(8-fluoro-5-methylchroman-6-yl)-6-methylindolin-5-yl)acetic acid]",11
20,"Cc1ccc(-c2c3c(cc(C)c2[C@H](OC(C)(C)C)C(=O)O)N(C(=O)c2ccc(Cl)cc2)CC3)cc1 [Example 22, (S)-2-(tert-Butoxy)-2-(1-(4-chlorobenzoyl)-6-methyl-4-(p-tolyl)indolin-5-yl)acetic acid]",11
21,"Cc1cc2c(c(-c3cc(F)c4c(c3C)CCCO4)c1[C@H](OC(C)(C)C)C(=O)O)CCN2C(=O)c1ccc(Cl)cc1Cl (atropisomer, axis not shown) [Example 70, (S)-2-(tert-Butoxy)-2-((R)-1-(2,4-dichlorobenzoyl)-4-(8-fluoro-5-methylchroman-6-yl)-6-methylindolin-5-yl)acetic acid]",5
22,"Cc1ccc(-c2c3c(cc(C)c2[C@H](OC(C)(C)C)C(=O)O)N(C(=O)c2ccccn2)CC3)cc1 [Example 38, (S)-2-(tert-Butoxy)-2-(6-methyl-1-picolinoyl-4-(p-tolyl)indolin-5-yl)acetic acid]",18
23,"Cc1cc2c(c(-c3cc(F)c4c(c3C)CCCO4)c1[C@H](OC(C)(C)C)C(=O)O)CCN2C(=O)c1cc(C(F)(F)F)ccc1Cl (atropisomer, axis not shown) [Example 154, (S)-2-(tert-Butoxy)-2-((R)-1-(2-chloro-5-(trifluoromethyl)benzoyl)-4-(8-fluoro-5-methylchroman-6-yl)-6-methylindolin-5-yl)acetic acid]",52
24,"Cc1ccc(-c2c3c(cc(C)c2[C@H](OC(C)(C)C)C(=O)O)N(C(=O)Cc2ccc(F)c(F)c2)CC3)cc1 [Example 34, (S)-2-(tert-Butoxy)-2-(1-(2-(3,4-difluorophenyl)acetyl)-6-methyl-4-(p-tolyl)indolin-5-yl)acetic acid]",69
25,"Cc1cc2c(c(-c3cc(F)c4c(c3C)CCCO4)c1[C@H](OC(C)(C)C)C(=O)O)CCN2C(=O)c1cc(Cl)cc(Cl)c1 (atropisomer, axis not shown) [Example 82, (S)-2-(tert-Butoxy)-2-((R)-1-(3,5-dichlorobenzoyl)-4-(8-fluoro-5-methylchroman-6-yl)-6-methylindolin-5-yl)acetic acid]",12
26,"COc1ccc(C(=O)N2CCc3c2cc(C)c([C@H](OC(C)(C)C)C(=O)O)c3-c2cc(F)c3c(c2C)CCCO3)c(C(F)(F)F)c1 (atropisomer, axis not shown) [Example 152, (S)-2-(tert-Butoxy)-2-((R)-4-(8-fluoro-5-methylchroman-6-yl)-1-(4-methoxy-2-(trifluoromethyl)benzoyl)-6-methylindolin-5-yl)acetic acid]",13
27,"COc1cc(-c2c3c(cc(C)c2[C@H](OC(C)(C)C)C(=O)O)N(C(=O)c2ccc(C)nc2)CC3)c(C)c2c1OCCC2 (atropisomer, axis not shown) [Example 193, (S)-2-(tert-Butoxy)-2-((R)-4-(8-methoxy-5-methylchroman-6-yl)-6-methyl-1-(6-methylnicotinoyl)indolin-5-yl)acetic acid]",9
